Test results: patent publication US8003645B2, “Preventives or remedies for Alzheimer's disease, or amyloid protein fibril-formation inhibitors, which include a nitrogen-containing heteroaryl compound” (BTG International Ltd., priority 2001, dated 2011)
Where two headings read alike, the source gives them in different places.

What was measured:
[1] = system: HeLa cells; assay: Action in inhibiting the lowering of MTT reduction capacity by Aβ1-40; format: cell-based
Procedure: The HeLa cells employed were purchased from the Dainippon Pharmaceutical Co.
The HeLa cells were seeded by suspension in MEM (Minimum essential medium; produced by the Sigma Chemical Co.) containing 10% inactivated FBS (foetal bovine serum) such that there were 1,000 per well in a 96-well microplate, and then culturing was carried out overnight in an incubator at 37° C. in the presence of 5% CO2.
The test compound was dissolved in dimethyl sulphoxide (DMSO) and diluted with the MEM medium so that the final concentration of DMSO was no more than 0.1 wt %, and added to the cells seeded the previous day. […] Overnight culturing was carried out using an incubator at 37° C. in the presence of 5% CO2, with 100 μL/well of MEM medium containing 5% deactivated FBS.
Now, prior to use, the Aβ1-40 had been dissolved in buffer and left overnight so that the amyloid coagulated.
In order to determine the percentage inhibition of the test compound, cells alone, cells where Aβ1-40 had been added, and cells where only the test compound had been added, were also incubated overnight under the same conditions.
The following day, there was added 10 μL/well of MTT [3-(4,5-dimethylthiazol-2-yl)-2,5-diphenyltetrazolium bromide: produced by Wako Pure Chemical Industries] prepared at a concentration of 5 mg/mL with phosphate buffered saline (PBS), and incubation carried out for 2 hours at 37° C. in the presence of 5% CO2. The medium was then eliminated and the formazan dye produced measured […] (A570 nm-A650 nm) using a Microplate Reader (produced by the Molecular Devices Co.), by dissolving with the addition of 100 μL per well of isopropanol. In this way, the change in the MTT reduction capacity of the HeLa cells was measured.
The percentage inhibition (%) by the test compound was determined from the following formula. inhibition (%) [[…]/(a−c)]×100 where • a=MTT reduction capacity when untreated • b=MTT reduction capacity when Aβ1-40 and the test compound are added • c=MTT reduction capacity when only Aβ1-40 is added

[2] = system: acute sections from the hippocampus; assay: Suppression of Aβ1-42-induced long-term potentiation impairment (fEPSP slope) in acute hippocampal sections; format: cell-based, Wistar rats; settings: for effect of compound on its own on LTP (result in words): compound alone; for impairment of the LTP due to Aβ1-42 (result in words): pretreating 5 hours with Aβ1-42 together with the compound
Procedure: The method for testing the suppression of the impairment of long-term potentiation was based on that described in J. Neurosci. Vol. 20, 2003-10 (2000). That is to say, acute^i sections of thickness 400 μm were prepared from the hippocampus of the brains of 3-4 week old male Wistar rats. These acute sections were immersed in artificial cerebrospinal fluid in which β-amyloid protein (Aβ1-42: produced by the Sigma Chemical Co.) and compound from Production Examples 1 or 12 had been dissolved, and pretreatment carried out for 5 hours.
In the measurement using the compound from Production Example 1, the concentration of the Aβ1-42 in the artificial cerebrospinal fluid was 500 nM and the concentration of the compound from Production Example 1 was 1 μg/mL. In the measurement using the compound from Production Example 12, the concentration of the Aβ1-42 in the artificial cerebrospinal fluid was 1 μM and the concentration of the compound from Production Example 12 was 3 μg/mL. Now, the Aβ1-42 was used after coagulation of the amyloid by leaving overnight.
100 pulses of high frequency stimulation at 100 Hz were applied to the pretreated acute sections, and the field excitatory postsynaptic potential: fEPSP) measured by an extracellular recording method.
The fEPSP was measured at 30 second intervals following application of the high frequency stimulation and the fEPSP slope (units [%]) measured. The average values of the slope over 0-20 minutes, 20-40 minutes and 40-60 minutes were determined. This test was repeated five times over. In the table, the figures are the average values ±standard deviation for the five averages obtained in the five tests. […] “Aβ” denotes the Aβ1-42.
As controls, measurements were made of the fEPSP [mV] under the same conditions for acute sections pretreated with the artificial cerebrospinal fluid alone, acute sections pretreated with the artificial cerebrospinal fluid in which Aβ1-42 had been dissolved, and acute sections pretreated with artificial cerebrospinal fluid in which only the compound from Production Example 1 or 12 had been dissolved, and then the average value of the fEPSP slope [%] obtained.

[3] = molecular target: Aβ1-42 (Homo sapiens, UniProt P05067); assay: Aβ fibril-formation inhibiting action, thioflavin binding assay; format: biochemical; settings: for activity at 100 µg/mL: Aβ1-42 25 μM + compound 100 μg/mL, incubation 2 days at 37° C., Aβ1-42 alone taken as 100, read-out: fibril-formation inhibiting action (fluorescent intensity %); for Aβ fibril-formation (result in words): compound added prior to fibril formation, thioflavin fluorescence
Procedure: (§1) The Aβ fibril-formation inhibiting action and fibrillar Aβ breakdown action were evaluated using the thioflavin binding assay method. The details of the test method are based on the method described in J. Biol. Chem. Vol. 274, 25945-25952 (1999).
In the measurement of the inhibition of Aβ fibril-formation, the concentration of the Aβ1-42 was 25 μM and the concentration of the compound synthesized in Production Example 4 or Production Example 12 was 100 μg/mL in each case. The measurement of the Aβ fibril-formation inhibiting action was carried out following incubation for 2 days at 37° C. of the Aβ1-42 alone and of the Aβ1-42 to which the compound synthesized in Production Example 4 or Production Example 12 had been added.
(§2) The measurements of the Aβ fibril-formation inhibiting action and of the fibrillar Aβ breakdown action were carried out by placing a 100 μL sample obtained by pretreatment as described above, plus 800 μL of distilled water, 1 mL of glycine (100 mM) and 50 μL of thioflavin (100 μM) in a cuvette, and measuring the fluorescence at an excitation wavelength of 435 nm and a fluorescence wavelength of 490 nm.
(§3) The figures in the table show the calculated percentages taking the fluorescent intensity obtained when the fluorescence of the sample obtained by incubating Aβ1-42 (25 μM) alone by the above method, and measured at an excitation wavelength of 435 nm and a fluorescence wavelength of 490 nm, was taken as 100. The figures are in the form of the average value ±standard deviation, for the three to nine averages obtained in three to nine tests. […] “Aβ” is for the Aβ1-42.

[4] = molecular target: fibrillar Aβ1-42 (Homo sapiens, UniProt P05067); assay: Fibrillar Aβ breakdown action, thioflavin binding assay; format: biochemical; settings: for fibrillar breakdown action (fluorescent intensity %): Aβ1-42 25 μM incubated 2 or 3 days at 37° C., then compound 100 μg/mL, further 2 days, Aβ1-42 alone taken as 100; for fibrillar Aβ breakdown action (result in words): compound added after fibril formation, thioflavin fluorescence
Procedure: as §1
In the measurement of the fibrillar Aβ breakdown action, the concentration of the Aβ1-42 was 25 μM and the concentration of the compound synthesized in Production Example 4 or Production Example 12 was 100 μg/mL in each case. After incubating the Aβ1-42 for 2 days or 3 days at 37° C., the compound synthesized in Production Example 4 or Production Example 12 was or was not added, and then further incubation performed for 2 days, after which measurement of the fibrillar Aβ breakdown action was performed.
as §2, §3

[5] = Homo sapiens, HeLa cells, Aβ1-40 (100 nM), read-out: IC50 (action in inhibiting the lowering of the MTT reduction capacity by Aβ1-40)
[6] = Table 8, Aβ (1 μM) + compound 1 μg/mL
[7] = Table 8, compound alone 1 μg/mL, no Aβ
[8] = Test 1, Aβ1-42 (500 nM) + compound 1 μg/mL
[9] = Test 1, compound alone 1 μg/mL, no Aβ
[10] = Test 2, Aβ1-42 (1 μM) + compound 3 μg/mL
[11] = Test 2, compound alone 3 μg/mL, no Aβ

Chain of Aβ1-42 (P05067 672-713): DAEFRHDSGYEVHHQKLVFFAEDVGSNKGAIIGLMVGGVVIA
Chain of fibrillar Aβ1-42 (P05067 672-713): as above

## Oc1cccc(Nc2ccnc(Nc3cccc(O)c3)n2)c1 [Production Example 6, N,N′-bis(3-hydroxyphenyl)pyrimidine-2,4-diamine]
[1]; [5]
  IC50: 6.7 µM

## Cc1nc(Nc2cccc(O)c2)nc(Nc2cccc(O)c2)n1 [Production Example 27, N,N′-bis(3-hydroxyphenyl)-6-methyl-1,3,5-triazine-2,4-diamine]
[1]; [5]
  IC50: 2.4 µM

## O=[N+]([O-])c1c(Nc2cccc(O)c2)ncnc1Nc1cccc(O)c1 [Production Example 18, N,N′-bis(3-hydroxyphenyl)-5-nitropyrimidine-4,6-diamine]
[1]; [5]
  IC50: 3.8 µM

## CC1(C)CC(C)(c2ccc(O)cc2O)c2ccc(O)cc2O1 (centres unmarked) [Compound A, 4-(7-hydroxy-2,4,4-trimethyl-chroman-4-yl)benzene-1,3-diol, reference compound]
[2]; [6]
  Value of fEPSP Slope [%] 0-20 minutes: 159.5 ± 6.6%
  Value of fEPSP Slope [%] 20-40 minutes: 142.8 ± 5.4%
  Value of fEPSP Slope [%] 40-60 minutes: 137.3 ± 4.5%
[2]; [7]
  Value of fEPSP Slope [%] 0-20 minutes: 168.6 ± 13.0%
  Value of fEPSP Slope [%] 20-40 minutes: 146.6 ± 15.9%
  Value of fEPSP Slope [%] 40-60 minutes: 149.7 ± 16.1%
[1]; same method as Table 6, HeLa cells, Aβ1-40, read-out: 50% inhibitory concentration (IC50), action in suppressing the lowering of MTT function
  IC50: 12 µM

## CC(C)(C)c1nc(Nc2cccc(O)c2)nc(Nc2cccc(O)c2)n1 [Production Example 33, 6-t-Butyl-N,N′-bis(3-hydroxyphenyl)-1,3,5-triazine-2,4-diamine]
[1]; [5]
  IC50: 2.2 µM

## CCCc1nc(Nc2cccc(O)c2)nc(Nc2cccc(O)c2)n1 [Production Example 10, N,N′-bis(3-hydroxyphenyl)-6-propyl-1,3,5-triazine-2,4-diamine]
[1]; [5]
  IC50: 4.2 µM

## Cc1nc(Nc2cccc(O)c2)cc(Nc2cccc(O)c2)n1 [Production Example 4, 2-Methyl-N,N′-bis(3-hydroxyphenyl)pyrimidine-4,6-diamine]
[3]
  activity at 100 µg/mL: 16.3 ± 5.3%
  Aβ fibril-formation (result in words): Aβ fibril-formation was inhibited
[1]; [5]
  IC50: 6 µM
[4]
  fibrillar breakdown action (fluorescent intensity %): 30.63 ± 1.26%
  fibrillar Aβ breakdown action (result in words): there was a fibrillar Aβ breakdown action

## CCc1nc(Nc2cccc(O)c2)cc(Nc2cccc(O)c2)n1 [Production Example 2, 2-Ethyl-N,N′-bis(3-hydroxyphenyl)pyrimidine-4,6-diamine]
[1]; [5]
  IC50: 1.9 µM

## CCCCc1nc(Nc2cccc(O)c2)cc(Nc2cccc(O)c2)n1 [Production Example 8, 2-Butyl-N,N′-bis(3-hydroxyphenyl)pyrimidine-4,6-diamine]
[1]; [5]
  IC50: 5.5 µM

## CCC(C)c1nc(Nc2cccc(O)c2)nc(Nc2cccc(O)c2)n1 (centres unmarked) [Production Example 34, 6-s-Butyl-N,N′-bis(3-hydroxyphenyl)-1,3,5-triazine-2,4-diamine]
[1]; [5]
  IC50: 4.1 µM

## CCCc1nc(Nc2cccc(O)c2)cc(Nc2cccc(O)c2)n1 [Production Example 9, 2-Propyl-N,N′-bis(3-hydroxyphenyl)pyrimidine-4,6-diamine]
[1]; [5]
  IC50: 2.4 µM

## CCc1nc(Nc2cccc(O)c2)nc(Nc2cccc(O)c2)n1 [Production Example 1, 6-Ethyl-N,N′-bis(3-hydroxyphenyl)-1,3,5-triazine-2,4-diamine]
[2]; [8]
  Value of fEPSP Slope [%] 0-20 minutes: 150.0 ± 8.4%
  Value of fEPSP Slope [%] 20-40 minutes: 149.6 ± 6.9%
  Value of fEPSP Slope [%] 40-60 minutes: 151.2 ± 7.5%
[2]; [9]
  Value of fEPSP Slope [%] 0-20 minutes: 155.3 ± 3.4%
  Value of fEPSP Slope [%] 20-40 minutes: 156.5 ± 3.9%
  Value of fEPSP Slope [%] 40-60 minutes: 155.8 ± 5.0%
[2]; no Aβ
  effect of compound on its own on LTP (result in words): inactive on its own
[2]
  impairment of the LTP due to Aβ1-42 (result in words): suppressed
[1]; [5]
  IC50: 3.5 µM

## Oc1cccc(Nc2ccc(Nc3cccc(O)c3)nn2)c1 [Production Example 12, N,N′-bis(3-hydroxyphenyl)pyridazine-3,6-diamine]
[3]
  activity at 100 µg/mL: 1.69 ± 1.32%
  Aβ fibril-formation (result in words): Aβ fibril-formation was inhibited
[2]; [10]
  Value of fEPSP Slope [%] 0-20 minutes: 161.7 ± 2.6%
  Value of fEPSP Slope [%] 20-40 minutes: 148.1 ± 3.1%
  Value of fEPSP Slope [%] 40-60 minutes: 146.2 ± 4.6%
[2]; [11]
  Value of fEPSP Slope [%] 0-20 minutes: 175.3 ± 7.4%
  Value of fEPSP Slope [%] 20-40 minutes: 162.9 ± 9.8%
  Value of fEPSP Slope [%] 40-60 minutes: 160.8 ± 10.3%
[2]; no Aβ
  effect of compound on its own on LTP (result in words): inactive on its own
[2]
  impairment of the LTP due to Aβ1-42 (result in words): suppressed
[4]
  fibrillar breakdown action (fluorescent intensity %): 28.49 ± 5.17%
  fibrillar Aβ breakdown action (result in words): there was a fibrillar Aβ breakdown action

## Oc1cccc(Nc2cc(Nc3cccc(O)c3)ncn2)c1 [Production Example 5, N,N′-bis(3-hydroxyphenyl)pyrimidine-4,6-diamine]
[1]; [5]
  IC50: 9.6 µM

## Nc1nc(Nc2cccc(O)c2)cc(Nc2cccc(O)c2)n1 [Production Example 13, 2-Amino-N,N′-bis(3-hydroxyphenyl)pyrimidine-4,6-diamine]
[1]; [5]
  IC50: 5.5 µM
